Patent US20060275800A1, “Process for characterization of the transactivation and transrepression activity of glucocorticoid receptor ligands in primary immune cells” (priority 2005, published 2006)

Tests used:
[1] = test system: TNF-α; test: In vitro mRNA expression of TNF-α (transrepression parameter) in unstimulated human PBMC cultures; type: cell-based; settings: for Transrepression vs. Prednisolone TNF-α: mRNA, PBMC cultures, prednisolone/GR ligand quotient
Excerpt: (§1) Regarding the definition of suitable parameters, the regulation, mediated by standard glucocorticoids and selective GR ligands, of more than 50 genes in primary human immune cells was examined in a broad screening approach. Selected genes were further characterized in vitro and in vivo in kinetic experiments. […] Decisive criteria for the parameter selection were 1) the consistent reflection of transactivation or transrepression properties of GR ligands, 2) the detection of the regulation in non-stimulated immune cells, and 3) the quick reaction of the gene expression in in vitro assays (the 4-hour time period was used for the screening), and the good and enduring detectability after in vivo application of GR ligands. These properties make it likely that a direct regulation of the gene expression by the GR ligands will take place and that the parameters will be usable in in vivo studies (e.g., as biomarkers).
(§2) To have a comparison with a standard GK, the GR-ligand-influenced gene expressions for these parameters were normalized to the gene expression after treatment with the standard GK, prednisolone. […] It is clear to one skilled in the art that the normalization could also in principle be related to any other glucocorticoid.
(§3) For gene suppression, the “prednisolone/GR ligand” quotient was derived for purposes of normalization, i.e., a lower value (<1) indicates a relatively weaker suppression by the GR ligands (higher values in the residual gene expression).
(§4) For the mRNA detection, the total RNA was isolated from the respective samples (human PBMC or human whole blood or spleen cells from mice), transcribed in the cDNA and amplified and detected below by means of Real-time TaqMan-PCR (Applied Biosystems). A relative quantification in comparison to the expression of the “house-keeping” gene HPRT was carried out. In each case, the ratio of the result for the GR ligands to the result of the vehicle control is plotted.

[2] = test system: transrepression (TNF-α and IL-1β) and transactivation (CD163 and FKBP51); test: Transrepression/transactivation ratio (dissociation factor) in human PBMC cultures; type: cell-based; settings: PBMC cultures, 1, 2, 4, 12 and 24 hours
Excerpt: As parameters that could [make] reference to the mechanism of the transrepression, TNF-α and IL-1β were selected. CD163 and FKBP51 are used to detect the transactivation activity.
Below, a ratio between the transrepression and transactivation parameters that are normalized to prednisolone was derived according to formula 2: [formula]
The factors for the transactivation and transrepression activity were averaged geometrically and put into a ratio with one another. […] The higher the ratio, the more dissociated the GR ligand is in comparison to prednisolone (ratio=1). [drawing]
Figure: Ratios for Visualization of the In Vitro Dissociation of the GR Ligands in Comparison to Prednisolone in PBMC Cultures (n—3) after 1, 2, 4, 12 and 24 Hours.
The ratios were calculated after the normalization of the gene expression values to prednisolone from the quotient of the geometric means of the parameters for transrepression (TNF-α and IL-1β) and for transactivation (CD163 and FKBP51). Mean values±SD.

[3] = test system: FKBP51; test: Time-dependent FKBP51 mRNA expression in human whole-blood cultures; type: cell-based
Experimental: as §4
(§5) For the parameters CD163 and FKBP51, in addition, the time-dependent influence of CR ligands on the mRNA expression in human whole-blood cultures was examined.

[4] = test system: IL-1β; test: In vitro mRNA expression of IL-1β (transrepression parameter) in unstimulated human PBMC cultures; type: cell-based; settings: for Transrepression vs. Prednisolone IL-1β: mRNA, PBMC cultures, prednisolone/GR ligand quotient
Excerpt: as §1, §2, §3, §4

[5] = test system: CD163; test: Time-dependent CD163 mRNA expression in human whole-blood cultures; type: cell-based
Experimental: as §4, §5

[6] = test system: CD163; test: In vitro mRNA expression of CD163 (transactivation parameter) in unstimulated human PBMC cultures; type: cell-based; settings: for Transactivation vs. Prednisolone CD163: mRNA, PBMC cultures, GR-ligand/prednisolone quotient
Excerpt: as §1, §2, §3, §4

[7] = test system: FKBP51; test: In vitro mRNA expression of FKBP51 (transactivation parameter) in unstimulated human PBMC cultures; type: cell-based; settings: for Transactivation vs. Prednisolone FKBP51: mRNA, PBMC cultures, GR-ligand/prednisolone quotient
Excerpt: as §1, §2, §3, §4

[8] = test system: glutamine synthetase; test: In vivo expression of glutamine synthetase in spleen cells of treated mice; settings: after 24 hours
Experimental: as §4
(§6) The in vivo regulation of the expression of selected genes was characterized in the spleen cells of SEGRA-treated mice after 24 hours.

[9] = test system: CD163; test: In vivo expression of CD163 in spleen cells of treated mice; settings: after 24 hours
Experimental: as §4, §6

[10] = test system: tyrosinaminotransferase (TAT); test: Induction of tyrosinaminotransferase (TAT) activity in rat hepatoma cells (H4IIE3); type: cell-based; settings: agonism, rat hepatoma cells, n=2
Experimental: In a second transactivation system, the induction of the tyrosinaminotransferase (TAT) by glucocorticoids is determined. In the promoter of the gene for the TAT, GREs are also located, so that this gene is expressed in an enhanced form by binding of the ligand-activated GR. To this end, rat hepatoma cells (H4IIE3) are treated for 24 hours with test and reference substances, and then the TAT activity is determined by photometry. For the two assays, both the detection of agonistic actions of the SEGRA substances in the transactivation and the detection of antagonistic actions in the induction of the parameters by other GR ligands are possible.
(§7) The activities of SEGRA substances in the respective transactivation and transrepression systems are determined in comparison to the activities of the reference substance dexamethasone.

[11] = test system: MMTV promoter; test: MMTV promoter luciferase transactivation assay in HeLa cells; type: cell-based, human
Excerpt: The promoter of the mouse mammary tumor virus (MMTV) contains specific binding sites for the activated GR (so-called GREs). This promoter was cloned before a reporter gene (luciferase), and the construct was integrated in a stable manner in the genome of the human cell line HeLa (cervix carcinoma cells). By adding test and reference substances, the MMTV promoter is activated, and the luciferase, whose activity can be detected by means of photometric measurement, is expressed.
as §7

[12] = test system: GILZ; test: In vivo expression of GILZ in spleen cells of treated mice; settings: after 24 hours
Experimental: as §4, §6

[13] = test system: FKBP51; test: In vivo expression of FKBP51 in spleen cells of treated mice; settings: after 24 hours
Experimental: as §4, §6

[14] = test system: transactivation parameters; test: Gene induction in human PBMC (transactivation profile); type: cell-based; settings: mRNA
Experimental: as §4
Below, by way of example, the application of the characterization of the transactivation and transrepression activity of selective GR ligands by means of gene expression analysis in primary immune cells is shown comparatively based on two SEGRA substances, the agonist in the transactivation, compound 1, and the antagonist in the transactivation, compound 2. The molecular mechanism of these substances had been previously characterized in the usual assays (see 5.2 and 5.3). The gene expression analysis was performed by means of quantitative Real-Time-TaqMan-PCR. The ratios (mean value±standard deviation) of the results for the GR ligands to the results for the vehicle control are shown.
In contrast to this, the different transactivation profile of the SEGRA substances is reflected in differing degrees of gene induction.

[15] = human PBMC cultures, single substance

For `C[C@]12C=CC(=O)C=C1CC[C@@H]1[C@@H]2[C@@H](O)C[C@@]2(C)[C@H]1CC[C@]2(O)C(=O)CO` [Prednisolone, prednisolone], the “suppression of the mRNA expression of TNF-α (in words)” value [1, 15] was “suppression”, the “Transrepression vs. Prednisolone TNF-α” value ([1]; 1 hour) was 1.00 and the “Transrepression vs. Prednisolone TNF-α” value ([1]; 2 hours) was 1.00. For the same compound, the “Transrepression vs. Prednisolone TNF-α” value ([1]; 4 hours) was 1.00, the “Transrepression vs. Prednisolone TNF-α” value ([1]; 12 hours) was 1.00 and the “Transrepression vs. Prednisolone TNF-α” value ([1]; 24 hours) was 1.00. For the same compound, the “dissociation factor (transrepression/transactivation ratio vs prednisolone)” value [2] was “largely comparable”, the “time-dependent influence on FKBP51 mRNA expression” value [3] was “induced the expression of these genes permanently” and the “suppression of the mRNA expression of IL-1β (in words)” value [4, 15] was “suppression”. For the same compound, the “Transrepression vs. Prednisolone IL-1β” value ([4]; 1 hour) was 1.00, the “Transrepression vs. Prednisolone IL-1β” value ([4]; 2 hours) was 1.00 and the “Transrepression vs. Prednisolone IL-1β” value ([4]; 4 hours) was 1.00. For the same compound, the “Transrepression vs. Prednisolone IL-1β” value ([4]; 12 hours) was 1.00, the “Transrepression vs. Prednisolone IL-1β” value ([4]; 24 hours) was 1.00 and the “time-dependent influence on CD163 mRNA expression” value [5] was “induced the expression of these genes permanently”. The “induction of CD163 (in words)” value [6, 15] was “induced”, the “Transactivation vs. Prednisolone CD163” value ([6]; 1 hour) was 1.00 and the “Transactivation vs. Prednisolone CD163” value ([6]; 2 hours) was 1.00. For the same compound, the “Transactivation vs. Prednisolone CD163” value ([6]; 4 hours) was 1.00, the “Transactivation vs. Prednisolone CD163” value ([6]; 12 hours) was 1.00 and the “Transactivation vs. Prednisolone CD163” value ([6]; 24 hours) was 1.00. The “induction of FKBP51 (in words)” value [7, 15] was “induced”, the “Transactivation vs. Prednisolone FKBP51” value ([7]; 1 hour) was 1.00 and the “Transactivation vs. Prednisolone FKBP51” value ([7]; 2 hours) was 1.00. The “Transactivation vs. Prednisolone FKBP51” value ([7]; 4 hours) was 1.00, the “Transactivation vs. Prednisolone FKBP51” value ([7]; 12 hours) was 1.00 and the “Transactivation vs. Prednisolone FKBP51” value ([7]; 24 hours) was 1.00.

With `Cc1noc(=O)c2ccc(NC(=O)C(O)(CC(C)(C)c3cccc4c3OCO4)C(F)(F)F)cc12` (stereo not drawn) [compound 1] the “expression of glutamine synthetase” value [8] was “clear induction”, the “expression of CD163” value [9] was “clear induction” and the “effectiveness, induction of the TAT activity, % of the maximum dexamethasone effect” value [10] was 86±12.7%. The EC50 ([10]; read-out: power, induction of the TAT activity) was 5.7 ± 0.6 nM, the “time-dependent influence on FKBP51 mRNA expression” value [3] was “induced the expression of these genes permanently” and the “antagonistic effect in the MMTV promoter assay (in words)” value [11] was “antagonistic effect neither”. The EC50 ([11]; Homo sapiens, agonism, n=2, read-out: power, induction of the activity of the MMTV promoter) was 10 ± 1.4 nM, the “effectiveness, induction of the MMTV promoter, % of the maximum dexamethasone effect” value ([11]; agonism, n=2) was 73±2.8% and the “expression of GILZ” value [12] was “clear induction”. For the same compound, the “time-dependent influence on CD163 mRNA expression” value [5] was “induced the expression of these genes permanently”, the “expression of FKBP51” value [13] was “clear induction” and the gene induction [14] was “clearly induces”.
